According to US6462055B2, “Alpha-methylbenzyl-containing thiourea inhibitors of herpes viruses containing a phenylenediamine group” (Wyeth, priority 1998, dated 2002):
Converted amounts (≈) assume the structure as drawn.

How the values were obtained:
HSV-1 = experiment: HSV Antiviral (ELISA) Assay in Vero cells; type: cell-based, herpes simplex virus type 1; conditions: HSV-1, Vero cells; for IC50: Human alphaherpesvirus 1, read-out: IC50 (ug/ml) HSV
Procedure, shortened: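 Viral replication was quantified by cell-fixed ELISA for HSV glycoprotein D, using a β-galactosidase reporter and fluorogenic umbelliferyl substrate, about 24 h after HSV-1 infection (MOI 0.006) of Vero cells. Compounds, at several concentrations, were added 30 min pre-infection. IC50 was derived from fluorescence relative to the compound-free signal.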

[1] = tested on: HCMV recombinant mutant virus (RV145); experiment: microbe, parasite or virus in culture; type: cell-based, human cytomegalovirus; conditions: for IC50: Human betaherpesvirus 5, read-out: IC50 ug/ml HCMV, HCMV
Procedure, shortened: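 Read-out is beta-glucuronidase activity in cell lysates 96 h after infection, measured colorimetrically or fluorometrically. Reporter virus RV145 expresses the enzyme under a viral promoter in human foreskin fibroblasts treated with inhibitor.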

VZV strain Ellen = experiment: VZV Antiviral (ELISA) Assay in human foreskin fibroblast cells; type: cell-based, varicella-zoster virus; conditions: for IC50 / inhibition at 10 µg/mL: Human alphaherpesvirus 3, Fibroblast; for IC50: read-out: IC50 (ug/ml) VZV; for inhibition at 10 µg/mL: read-out: % inhibition 10 ug/ml VZV, 10 ug/ml
Procedure, shortened: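 Antiviral IC50 is derived by comparing fluorescence with and without compound after a three-day culture of VZV-infected plus uninfected foreskin fibroblasts. Replication is quantified by ELISA against glycoprotein II, using a β-galactosidase secondary and methyl umbelliferyl-β-D-galactoside.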

SMILES	IC50 (HSV-1) [µg/mL]	IC50 ug/ml HCMV [1] [µg/mL]	IC50 (VZV strain Ellen) [µg/mL]	IC50 (ug/ml) HSV (HSV-1) [µg/mL]	IC50 (ug/ml) VZV (VZV strain Ellen) [µg/mL]	IC50 [1] [µg/mL]	% inhibition 10 ug/ml VZV (VZV strain Ellen) [%]	inhibition at 10 µg/mL (VZV strain Ellen) [%]
CC(NC(=S)Nc1ccc(NC(=O)c2nccc3ccccc23)cc1)c1ccc(F)cc1 (centres unmarked) [Example 976, Isoquinoline-1-carboxylic acid (4-{3-[1-(4-fluoro-phenyl)-ethyl]-thioureido}-phenyl)-amide]	> 10	>10	0.04 (≈ 0.09 µM)					
O=C(Nc1ccc(NC(=S)NCCc2cccc(Cl)c2)cc1)c1ccccc1F [Example 563]		>0.5		>10	9 (≈ 21 µM)			
CC(NC(=S)Nc1ccc(NC(=O)c2ccccc2F)cc1)c1cccc(Cl)c1 (centres unmarked) [Example 779]		1.2 (≈ 2.8 µM)		>10	>7.5			
COc1ccccc1C(=O)Nc1ccc(NC(=S)NC(C)c2ccc(C#N)cc2)cc1 (centres unmarked) [Example 1017, N-(4-{3-[1-(4-Cyano-phenyl)-ethyl]-thioureido}-phenyl)-2-methoxy-benzamide]	> 10		0.3 (≈ 0.697 µM)			> 10		
Nc1c(Br)cc(NC(=S)Nc2ccc(NC(=O)c3ccccc3F)cc2)cc1Br [Example 519]		1.7 (≈ 3.16 µM)		0.4 (≈ 0.743 µM)	>10		18	
CC(C)Oc1ccc(NC(=S)Nc2ccc(NC(=O)c3ccccc3F)cc2)cc1Cl [Example 808]		>10		>10	>7.5			
CC(NC(=S)Nc1ccc(NC(=O)c2ccc(C(F)(F)F)cc2)cc1)c1ccc(F)cc1 (centres unmarked) [Example 1021, N-(4-{3-[1-(4-Fluorophenyl)-ethyl]-thioureido}-phenyl)-4-trifluoromethyl-benzamide]	> 10		0.4 (≈ 0.867 µM)			> 10		
O=C(Nc1ccc(NC(=S)NCc2ccc(Cl)c(Cl)c2)cc1)c1ccccc1F [Example 538]		>10		>10	10 (≈ 22.3 µM)			
CC(NC(=S)Nc1ccc(NC(=O)c2ccccc2F)cc1)c1ccc(Cl)cc1 (centres unmarked) [Example 781]		1.8 (≈ 4.21 µM)		>10	0.6 (≈ 1.4 µM)			
CN1CCC(N(C)c2ccc(NC(=S)Nc3ccc(NC(=O)c4ccccc4F)cc3)cc2Cl)CC1 [Example 855, N-[4-(3-{3-Chloro-4-[methyl-(1-methyl-piperidin-4-yl)-amino]-phenyl}-thioureido)-phenyl]-2-fluoro-benzamide]	2.5 (≈ 4.75 µM)		> 10			0.7 (≈ 1.33 µM)		52
CCCCN(C)c1cc(NC(=S)Nc2ccc(NC(=O)c3ccccc3F)cc2)cc(C(F)(F)F)c1 [Example 598]		>10		>10	>10			
O=C(Nc1ccc(NC(=S)NC(Cc2ccccc2)c2ccc(F)cc2)cc1)c1ccccc1F (centres unmarked) [Example 774]		0.5 (≈ 1.03 µM)		>10	>7.5			
O=C(Nc1ccc(NC(=S)Nc2ccc(Cl)c(C(F)(F)F)c2)cc1)c1c(F)cccc1F [Example 380]		>10		>10	>10		50	
CC(NC(=S)Nc1ccc(NC(=O)c2ccccc2F)cc1)c1ccccc1Cl (centres unmarked) [Example 784]		1.1 (≈ 2.57 µM)		>10	0.7 (≈ 1.64 µM)			
CC(NC(=S)Nc1ccc(NC(=O)c2ccccc2Br)cc1)c1ccc(F)cc1 (centres unmarked) [Example 795]		4.1 (≈ 8.68 µM)		8.6 (≈ 18.2 µM)	>7.5			
CN(c1ccc(NC(=S)Nc2ccc(NC(=O)c3ccccc3F)cc2)cc1Cl)C1CCCCC1 [Example 238]		>10		>10	>10		38	
COc1cc(OC)c(NC(=S)Nc2ccc(NC(=O)c3cccc([N+](=O)[O-])c3)cc2)cc1Cl [Example 135]		5 (≈ 10.3 µM)		1.5 (≈ 3.08 µM)	>10		0	
CSc1ccc(NC(=S)Nc2ccc(NC(=O)c3ccccc3C)cc2)cc1Cl [Example 342]		1.4 (≈ 3.17 µM)		0.2 (≈ 0.452 µM)	>10		62	
COc1cc(OC)c(NC(=S)Nc2ccc(NC(=O)c3cccc(OCc4ccccc4)c3)cc2)cc1Cl [Example 210]		>10		5 (≈ 9.12 µM)	>10		14	

SMILES	IC50 (HSV-1) [µg/mL]	IC50 ug/ml HCMV [1] [µg/mL]	IC50 (VZV strain Ellen) [µg/mL]	IC50 (ug/ml) HSV (HSV-1) [µg/mL]	IC50 (ug/ml) VZV (VZV strain Ellen) [µg/mL]	IC50 [1] [µg/mL]	% inhibition 10 ug/ml VZV (VZV strain Ellen) [%]	inhibition at 10 µg/mL (VZV strain Ellen) [%]
O=C(Nc1ccc(NC(=S)Nc2cc(Br)cc(C(F)(F)F)c2)cc1)c1ccccc1F [Example 531]		5 (≈ 9.76 µM)		>10	6 (≈ 11.7 µM)			
O=C(Nc1ccc(NC(=S)Nc2ccc(Cl)c(Cl)c2)cc1)c1ccccc1F [Example 912, N-{4-[3-(3,4-Dichloro-phenyl)-thioureido]-phenyl}-2-fluoro-benzamide]	8 (≈ 18.4 µM)		> 10			> 10		21
COc1cc(OC)c(NC(=S)Nc2ccc(NC(=O)c3cccc4c3OCO4)cc2)cc1Cl [Example 255]		>10		1.2 (≈ 2.47 µM)	>10		0	
CC1CCCCN1CC(=O)Nc1ccc(NC(=S)Nc2ccc(NC(=O)c3ccccc3F)cc2)cc1Cl (centres unmarked) [Example 425]		0.5 (≈ 0.902 µM)		3 (≈ 5.41 µM)	>7.5		103	
COc1cc(OC)c(NC(=S)Nc2ccc(NC(=O)c3ccccc3)cc2)cc1Cl [Example 122]		4 (≈ 9.05 µM)		0.3 (≈ 0.679 µM)	>10		13	
O=C(Nc1ccc(NC(=S)Nc2ccc(F)c(Cl)c2)cc1)c1ccccc1F [Example 922, N-{4-[3-(3-Chloro-4-fluoro-phenyl)-thioureido]-phenyl}-2-fluoro-benzamide]	1 (≈ 2.39 µM)		> 10			> 10		40
COc1cc(OC)c(NC(=S)Nc2ccc(NC(=O)c3cccc(OCCN(C)C)c3)cc2)cc1Cl [Example 257]		7 (≈ 13.2 µM)		2.5 (≈ 4.73 µM)	2.5 (≈ 4.73 µM)		105	
O=C(CN1CCCC1)Nc1ccc(NC(=S)Nc2ccc(NC(=O)c3ccccc3F)cc2)cc1Cl [Example 417]		>10		6 (≈ 11.4 µM)	>10		15	
CCCCC(NC(=S)Nc1ccc(NC(=O)c2ccccc2F)cc1)c1ccc(F)cc1 (centres unmarked) [Example 773]		1.2 (≈ 2.65 µM)		>10	>7.5			
COc1cc(OC)c(NC(=S)Nc2ccc(NC(=O)c3ccccc3N)cc2)cc1Cl [Example 181]		>10		1.5 (≈ 3.28 µM)	>10		60	
Nc1c(Cl)cc(NC(=S)Nc2ccc(NC(=O)c3ccccc3F)cc2)cc1Cl [Example 518]		4 (≈ 8.9 µM)		0.25 (≈ 0.556 µM)	>10		32	
Cc1ccc(NC(=S)Nc2ccc(NC(=O)c3ccccc3F)cc2)cc1F [Example 997, 2-Fluoro-N-{4-[3-(3-fluoro-4-methyl-phenyl)-thioureido]-phenyl}-benzylamide]		4 (≈ 10.1 µM)		1.9 (≈ 4.78 µM)	>10			
COC(=O)c1cccc(NC(=S)Nc2ccc(NC(=O)c3ccccc3F)cc2)c1 [Example 950, 3-{3-[4-(2-Fluoro-benzoylamino)-phenyl]-thioureido}-benzoic acid methyl ester]	8 (≈ 18.9 µM)		> 10			> 10		
COc1cccc(C(=O)Nc2ccc(NC(=S)Nc3cc(Cl)c(OC)cc3OC)cc2)c1 [Example 120]		5 (≈ 10.6 µM)		0.8 (≈ 1.7 µM)	>10		25	
CN(C)CCSCC(=O)Nc1ccc(NC(=S)Nc2ccc(NC(=O)c3ccccc3F)cc2)cc1Cl [Example 373]		6 (≈ 10.7 µM)		9 (≈ 16.1 µM)	>10		4	
Cc1ccc(NC(=S)Nc2ccc(NC(=O)c3ccccc3F)c(C)c2)cc1Cl [Example 395]		3 (≈ 7.01 µM)		0.2 (≈ 0.467 µM)	>10		64	
COc1cccc(C(C)NC(=S)Nc2ccc(NC(=O)c3ccccc3F)cc2)c1 (centres unmarked) [Example 789]		>2.2		>10	1.5 (≈ 3.54 µM)			
O=C(Nc1ccc(NC(=S)Nc2ccc3[nH]nnc3c2)cc1)c1c(F)cccc1F [Example 527]		>10		>10	>10		20	
